Earlier results in patent US7033983B2, “Detergent compositions” (Unilever Home and Personal Care USA a division of Conopco, …, priority 2002, dated 2006).

Conditions: highly water-soluble materials; saturated solution in 100 g deionised water at 20° C.

NC(N)=O [Urea]
Water Solubility: >100 g/100 g
